Measurements published in ChEMBL document CHEMBL4043267, “Synthesis of photocaged 6-O-(2-nitrobenzyl)guanosine and 4-O-(2-nitrobenzyl) uridine triphosphates for photocontrol of the RNA transcription reaction” (Bioorg Med Chem, 2017).
Activity calls are given as the source filed them. The rule behind the calls is not given here.

How the values were obtained:
[1] = target: T7 RNA polymerase (Enterobacteria phage T7) (UniProt P00573); assay: Inhibition of T7 RNA polymerase assessed as RNA product formation at 2 mM using double stranded DNA as substrate incubated in presence of UV irradiation for 10 secs followed by enzyme addition measured after 4 hrs in presence of NTPs by sybrGOLD staining based fluorescence assay relative to controll; set-up: scale not given: the % may be the effect or the level left; conditions: Escherichia phage T7
T7 RNA polymerase (Enterobacteria phage T7), sequence (P00573 whole entry): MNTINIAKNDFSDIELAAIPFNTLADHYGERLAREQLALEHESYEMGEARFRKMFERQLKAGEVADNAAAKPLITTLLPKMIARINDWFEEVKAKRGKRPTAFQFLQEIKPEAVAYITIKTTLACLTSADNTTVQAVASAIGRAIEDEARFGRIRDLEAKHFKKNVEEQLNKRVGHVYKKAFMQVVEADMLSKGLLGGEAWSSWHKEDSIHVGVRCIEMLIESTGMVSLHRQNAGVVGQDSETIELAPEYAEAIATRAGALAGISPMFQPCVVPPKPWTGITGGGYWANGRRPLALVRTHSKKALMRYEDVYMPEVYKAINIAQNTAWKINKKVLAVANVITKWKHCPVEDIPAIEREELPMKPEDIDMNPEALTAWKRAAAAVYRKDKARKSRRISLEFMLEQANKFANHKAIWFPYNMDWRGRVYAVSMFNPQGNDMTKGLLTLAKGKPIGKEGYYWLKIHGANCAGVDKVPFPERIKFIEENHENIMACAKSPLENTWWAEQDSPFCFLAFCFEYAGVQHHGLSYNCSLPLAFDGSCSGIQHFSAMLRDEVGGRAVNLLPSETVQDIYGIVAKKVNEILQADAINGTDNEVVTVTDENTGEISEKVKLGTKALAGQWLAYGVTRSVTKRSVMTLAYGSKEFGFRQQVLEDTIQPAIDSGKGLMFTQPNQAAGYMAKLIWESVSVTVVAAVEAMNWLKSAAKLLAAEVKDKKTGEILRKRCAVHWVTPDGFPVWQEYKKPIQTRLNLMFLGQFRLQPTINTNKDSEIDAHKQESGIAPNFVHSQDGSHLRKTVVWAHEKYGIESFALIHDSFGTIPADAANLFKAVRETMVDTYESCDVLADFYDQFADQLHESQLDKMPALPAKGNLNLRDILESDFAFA

[2] = target: T7 RNA polymerase (Enterobacteria phage T7) (UniProt P00573); assay: Inhibition of T7 RNA polymerase assessed as RNA product formation at 2 mM using double stranded DNA as substrate after 4 hrs in presence of NTPs by sybrGOLD staining based fluorescence assay (reference value: 100%); set-up: scale not given: the % may be the effect or the level left; conditions: Escherichia phage T7
[3] = target: T7 RNA polymerase (Enterobacteria phage T7) (UniProt P00573); assay: Inhibition of T7 RNA polymerase assessed as RNA product formation at 10 mM using double stranded DNA as substrate after 4 hrs in presence of NTPs by sybrGOLD staining based fluorescence assay (reference value: 100%); set-up: scale not given: the % may be the effect or the level left; conditions: Escherichia phage T7
[4] = target: T7 RNA polymerase (Enterobacteria phage T7) (UniProt P00573); assay: Inhibition of T7 RNA polymerase assessed as RNA product formation at 5 mM using double stranded DNA as substrate after 4 hrs in presence of NTPs by sybrGOLD staining based fluorescence assay (reference value: 100%); set-up: scale not given: the % may be the effect or the level left; conditions: Escherichia phage T7
[5] = target: T7 RNA polymerase (Enterobacteria phage T7) (UniProt P00573); assay: (§1) Inhibition of T7 RNA polymerase assessed as RNA product formation at 2 mM using double stranded DNA as substrate incubated in presence of UV irradiation for 20 secs followed by enzyme addition measured after 4 hrs in presence of NTPs by sybrGOLD staining based fluorescence assay relative to control; set-up: scale not given: the % may be the effect or the level left; conditions: Escherichia phage T7
[6] = target: T7 RNA polymerase (Enterobacteria phage T7) (UniProt P00573); assay: Inhibition of T7 RNA polymerase assessed as reduction in RNA product formation at 2 mM using double stranded DNA as substrate incubated in absence of UV irradiation followed by enzyme addition measured after 4 hrs in presence of NTPs by sybrGOLD staining based fluorescence assay relative to control; conditions: Escherichia phage T7
[7] = target: T7 RNA polymerase (Enterobacteria phage T7, UniProt P00573); assay: (§2) Inhibition of T7 RNA polymerase assessed as reduction in RNA product formation using double stranded DNA as substrate after 4 hrs in presence of NTPs by sybrGOLD staining based fluorescence assay (reference value: 100%); set-up: species or system Escherichia phage T7
T7 RNA polymerase, sequence (P00573 whole entry): as above

[8] = target: T7 RNA polymerase (Enterobacteria phage T7) (UniProt P00573); assay: as §2; conditions: Escherichia phage T7
[9] = target: T7 RNA polymerase (Enterobacteria phage T7) (UniProt P00573); assay: Inhibition of T7 RNA polymerase assessed as RNA product formation at 2 mM using double stranded DNA as substrate incubated in presence of UV irradiation for 1 sec followed by enzyme addition measured after 4 hrs in presence of NTPs by sybrGOLD staining based fluorescence assay relative to control; set-up: scale not given: the % may be the effect or the level left; conditions: Escherichia phage T7
[10] = target: T7 RNA polymerase (Enterobacteria phage T7) (UniProt P00573); assay: Inhibition of T7 RNA polymerase assessed as RNA product formation at 0.2 mM using double stranded DNA as substrate after 4 hrs in presence of NTPs by sybrGOLD staining based fluorescence assay (reference value: 100%); set-up: scale not given: the % may be the effect or the level left; conditions: Escherichia phage T7
[11] = target: T7 RNA polymerase (Enterobacteria phage T7) (UniProt P00573); assay: as §1, with “assessed as reduction in RNA product” for “assessed as RNA product”, “irradiation for 60 secs followed” for “irradiation for 20 secs followed”; set-up: scale not given: the % may be the effect or the level left; conditions: Escherichia phage T7
[12] = target: T7 RNA polymerase (Enterobacteria phage T7) (UniProt P00573); assay: Inhibition of T7 RNA polymerase assessed as RNA product formation at 0.5 mM using double stranded DNA as substrate after 4 hrs in presence of ATP/UTP/CTP by sybrGOLD staining based fluorescence assay (reference value: 100%); set-up: scale not given: the % may be the effect or the level left; conditions: Escherichia phage T7
[13] = target: T7 RNA polymerase (Enterobacteria phage T7) (UniProt P00573); assay: Inhibition of T7 RNA polymerase assessed as RNA product formation at 2 mM using double stranded DNA as substrate incubated in presence of UV irradiation for 5 secs followed by enzyme addition measured after 4 hrs in presence of NTPs by sybrGOLD staining based fluorescence assay relative to control; set-up: scale not given: the % may be the effect or the level left; conditions: Escherichia phage T7
[14] = target: T7 RNA polymerase (Enterobacteria phage T7) (UniProt P00573); assay: Inhibition of T7 RNA polymerase assessed as RNA product formation at 1 mM using double stranded DNA as substrate after 4 hrs in presence of NTPs by sybrGOLD staining based fluorescence assay (reference value: 100%); set-up: scale not given: the % may be the effect or the level left; conditions: Escherichia phage T7
[15] = target: T7 RNA polymerase (Enterobacteria phage T7) (UniProt P00573); assay: as §1, with “assessed as reduction in RNA product” for “assessed as RNA product”, “irradiation for 40 secs followed” for “irradiation for 20 secs followed”; set-up: scale not given: the % may be the effect or the level left; conditions: Escherichia phage T7
[16] = target: T7 RNA polymerase (Enterobacteria phage T7) (UniProt P00573); assay: Inhibition of T7 RNA polymerase assessed as reduction in RNA product formation at 2 mM using double stranded DNA as substrate after 4 hrs in absence of NTPs by sybrGOLD staining based fluorescence assay (reference value: 100%); conditions: Escherichia phage T7

SMILES | Activity [1] | Activity [2] | Activity [3] | Activity [4] | Activity [5] | inhibition [6] | IC50 [7] | inhibition [8] | Activity [9] | Activity [10] | Activity [11] | Activity [12] | Activity [13] | Activity [14] | Activity [15] | inhibition [16]
O=c1nc(OCc2ccccc2[N+](=O)[O-])ccn1[C@@H]1O[C@H](COP(=O)(O)OP(=O)(O)OP(=O)(O)O)[C@@H](O)[C@H]1O | 72% | 63 to 70% | 8% | 39% | 70% | Active | 5 mM | Dose-dependent effect | 67% | 94% | 60% | 84% | 81% | 73% | 66% | –
Nc1nc(OCc2ccccc2[N+](=O)[O-])c2ncn([C@@H]3O[C@H](COP(=O)(O)OP(=O)(O)OP(=O)(O)O)[C@@H](O)[C@H]3O)c2n1 | 53% | 60 to 64% | 13% | 47% | 62% | Active | 5 mM | Dose-dependent effect | 4% | 89% | 62% | 89% | 41% | 87% | 64% | Active
